We go through 21 compounds from patent US10081633B2, “Adenylyl cyclase inhibitors, pharmaceutical compositions and method of use thereof” (priority 2016, dated 2018).

Each structure is given as a SMILES string. pIC50: −log10 of the molar value. Bounds are passed on as bounds.

One assay deals with T1, type V adenylyl cyclase (Homo sapiens, UniProt O95622).
T1 construct: from tissue; host or cells: heart (cardiomyocyte) membrane preparations from transgenic mice overproducing type V adenylyl cyclase
T1 sequence (O95622 whole entry): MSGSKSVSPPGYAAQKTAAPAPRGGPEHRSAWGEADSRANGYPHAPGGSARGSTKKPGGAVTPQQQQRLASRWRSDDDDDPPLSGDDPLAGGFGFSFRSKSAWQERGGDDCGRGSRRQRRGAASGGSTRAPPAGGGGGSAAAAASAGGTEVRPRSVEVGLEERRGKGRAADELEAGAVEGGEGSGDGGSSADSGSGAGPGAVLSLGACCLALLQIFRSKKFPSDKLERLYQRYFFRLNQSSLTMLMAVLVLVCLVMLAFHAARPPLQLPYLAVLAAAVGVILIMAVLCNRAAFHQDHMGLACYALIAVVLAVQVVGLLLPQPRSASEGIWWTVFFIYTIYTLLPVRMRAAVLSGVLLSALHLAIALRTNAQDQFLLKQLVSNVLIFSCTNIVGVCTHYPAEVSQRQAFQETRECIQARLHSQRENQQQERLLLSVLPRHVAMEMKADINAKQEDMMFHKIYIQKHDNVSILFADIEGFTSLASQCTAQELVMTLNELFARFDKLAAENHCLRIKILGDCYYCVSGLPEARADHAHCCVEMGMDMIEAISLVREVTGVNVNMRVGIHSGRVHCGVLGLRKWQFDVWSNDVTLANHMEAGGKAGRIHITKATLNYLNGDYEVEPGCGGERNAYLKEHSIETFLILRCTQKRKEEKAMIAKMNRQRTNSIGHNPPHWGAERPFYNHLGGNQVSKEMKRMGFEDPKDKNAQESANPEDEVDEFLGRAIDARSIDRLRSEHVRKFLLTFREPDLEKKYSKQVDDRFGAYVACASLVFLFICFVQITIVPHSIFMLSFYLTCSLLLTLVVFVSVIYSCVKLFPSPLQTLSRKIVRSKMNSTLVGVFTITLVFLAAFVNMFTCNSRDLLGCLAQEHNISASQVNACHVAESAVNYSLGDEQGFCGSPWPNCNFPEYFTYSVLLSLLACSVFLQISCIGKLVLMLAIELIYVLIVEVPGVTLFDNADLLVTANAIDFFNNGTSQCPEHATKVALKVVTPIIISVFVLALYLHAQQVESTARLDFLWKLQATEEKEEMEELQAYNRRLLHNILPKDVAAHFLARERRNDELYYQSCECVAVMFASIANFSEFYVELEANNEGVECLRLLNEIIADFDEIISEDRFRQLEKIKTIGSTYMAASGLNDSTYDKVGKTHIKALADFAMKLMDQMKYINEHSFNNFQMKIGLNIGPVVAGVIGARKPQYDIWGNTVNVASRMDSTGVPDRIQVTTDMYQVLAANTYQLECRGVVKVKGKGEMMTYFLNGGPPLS
Description: Adenylyl cyclase membrane assay, type V (cAMP ELISA). Type of assay: biochemical, mouse. Conditions: cardiomyocyte membrane preparations from transgenic mice; forskolin 50 μM. The protocol:
(§1) Compounds were assayed for their ability to attenuate cyclic AMP (cAMP) production in cardiomyocyte membrane preparations isolated from transgenic mice. Transgenic mice were separately bred to overproduce type V adenylyl cyclase, type VI adenylyl cyclase and type II adenylyl cyclase. cAMP levels were determined using a Cyclic AMP Competitive ELISA kit purchased from ThermoFischer Scientific (Cat# EMSCAMPL).
(§2) Buffer A (pH 8) was prepared comprising final concentrations of the following: 50 mM Tris, 1 mM EGTA, 1 mM EDTA, 1 mM DTT, 100 mM sucrose, 20 μg/mL TPCK (protease inhibitor), 20 μg/mL TLCK (protease inhibitor), 1 mM PMSF (protease inhibitor), 10 μg/mL leupeptin (protease inhibitor) and 10 μg/mL aprotinin (protease inhibitor).
(§3) Buffer B (pH 8) was prepared comprising final concentrations of the following: 50 mM Tris, 1 mM EDTA, 100 mM sucrose, 0.2 mM PMSF (protease inhibitor), 2 μg/mL leupeptin (protease inhibitor) and 2 μg/mL aprotinin (protease inhibitor).
Hearts were surgically excised from transgenic mice. Each isolated heart was treated with 3-4 mL of buffer A and cooled to 0 deg C. for 5 minutes. Treated hearts were homogenized for 10 seconds using a Polytron homogenizer cooled to 0 deg C. and set to speed 6. Homogenized hearts were centrifuged at 500×g at 4 deg C. for 10 minutes. Supernatants were transferred to ultracentrifuge tubes and centrifuged at 35,000 rpm at 4 deg C. for 40 minutes. Isolated pellets were combined with buffer B (500 μL) and sonicated to a suspension. Protein concentration was determined using a commercial Bradford assay kit. Membrane preparations were stored at −80 deg C.
Buffer R (pH 8) was prepared comprising final concentrations in water of the following: HEPES (20 mM), magnesium chloride (5 mM), EDTA (0.5 mM), ATP (0.1 mM), phospho creatinine (1 mM), creatinine phosphokinase (8 units/mL), IBMX (200 μM), forskolin (50 μM) or control (DMSO in water).
Inhibitor solutions were prepared by dilution of stock solutions of inhibitors (10 mM in DMSO) to a final concentration of 100 μM in water. Serial dilutions with water were subsequently made in order to determine IC50 values.
Reaction mixtures were prepared comprising buffer R (10 μL), inhibitor or control (10 μL), and water (75 μL).
A reaction mixture was pre-incubated at 30 deg C. for 5 minutes. A membrane preparation (e.g. 5 μL for type V Adenylyl Cyclase comprising 2 μg of membrane protein per 5 μL of preparation) was added and the mixture was incubated at 30 deg C. for 15 minutes. The reaction was stopped by addition of 0.1 M hydrochloric acid (100 μL) and cooled to 0 deg C. The resulting mixture was incubated at 0 deg C. for 60 minutes. The cAMP concentration of the supernatant was measured using a Cyclic AMP Competitive ELISA kit purchased from ThermoFischer Scientific.

The subject of assay [1] is H9c2(2-1) myoblast cell line. Description: Adenylyl cyclase cell-based assay, isoproterenol-stimulated cAMP. Conditions: Rattus norvegicus; H9c2 cells, isoproterenol 5 mM. The protocol: (§4) H9c2(2-1) myoblast cell line was obtained from ATCC (CRL-1446). Cells (10^5 cells/mL) were seeded in 24-well plates at 5×10^4 cells per well. Cells were allowed to attach over 24 hours. The cells were then washed with PBS. Serum-free DMEM supplemented with 20 mM HEPES and 0.5 mM IBMX was added and the cells were incubated at 37 deg C. for 20 minutes. An Adenylyl Cyclase inhibitor (0.001-100 μM in DMSO/water with DMSO concentration <1%) was added and the mixture was incubated at 37 deg C. for 10 minutes. Forskolin (50 μM in DMSO/water with DMSO concentration <1%) was added and the mixture was incubated at 37 deg C. for 10 minutes. As an alternative to forskolin, isoproterenol (5 mM in DMSO/water with DMSO concentration <1%) was added and the mixture was incubated at 37 deg C. for 15 minutes. The media was removed and the cells were lysed by addition of 0.1 M hydrochloric acid (200 μL) 0 deg C. Lysed mixtures were maintained at 0 deg C. for 10-20 minutes and the plates were then centrifuged at 3,000×g for 5 minutes. cAMP levels in the supernatant were measured using the ThermoScientific cAMP competitive ELISA (EMSCAMPL) kit with samples acetylated in glass or polypropylene tubes.

The next assay deals with T2, type VI adenylyl cyclase (Homo sapiens, UniProt O43306).
T2 construct: from tissue; host or cells: heart (cardiomyocyte) membrane preparations from transgenic mice overproducing type VI adenylyl cyclase
T2 sequence (O43306 whole entry): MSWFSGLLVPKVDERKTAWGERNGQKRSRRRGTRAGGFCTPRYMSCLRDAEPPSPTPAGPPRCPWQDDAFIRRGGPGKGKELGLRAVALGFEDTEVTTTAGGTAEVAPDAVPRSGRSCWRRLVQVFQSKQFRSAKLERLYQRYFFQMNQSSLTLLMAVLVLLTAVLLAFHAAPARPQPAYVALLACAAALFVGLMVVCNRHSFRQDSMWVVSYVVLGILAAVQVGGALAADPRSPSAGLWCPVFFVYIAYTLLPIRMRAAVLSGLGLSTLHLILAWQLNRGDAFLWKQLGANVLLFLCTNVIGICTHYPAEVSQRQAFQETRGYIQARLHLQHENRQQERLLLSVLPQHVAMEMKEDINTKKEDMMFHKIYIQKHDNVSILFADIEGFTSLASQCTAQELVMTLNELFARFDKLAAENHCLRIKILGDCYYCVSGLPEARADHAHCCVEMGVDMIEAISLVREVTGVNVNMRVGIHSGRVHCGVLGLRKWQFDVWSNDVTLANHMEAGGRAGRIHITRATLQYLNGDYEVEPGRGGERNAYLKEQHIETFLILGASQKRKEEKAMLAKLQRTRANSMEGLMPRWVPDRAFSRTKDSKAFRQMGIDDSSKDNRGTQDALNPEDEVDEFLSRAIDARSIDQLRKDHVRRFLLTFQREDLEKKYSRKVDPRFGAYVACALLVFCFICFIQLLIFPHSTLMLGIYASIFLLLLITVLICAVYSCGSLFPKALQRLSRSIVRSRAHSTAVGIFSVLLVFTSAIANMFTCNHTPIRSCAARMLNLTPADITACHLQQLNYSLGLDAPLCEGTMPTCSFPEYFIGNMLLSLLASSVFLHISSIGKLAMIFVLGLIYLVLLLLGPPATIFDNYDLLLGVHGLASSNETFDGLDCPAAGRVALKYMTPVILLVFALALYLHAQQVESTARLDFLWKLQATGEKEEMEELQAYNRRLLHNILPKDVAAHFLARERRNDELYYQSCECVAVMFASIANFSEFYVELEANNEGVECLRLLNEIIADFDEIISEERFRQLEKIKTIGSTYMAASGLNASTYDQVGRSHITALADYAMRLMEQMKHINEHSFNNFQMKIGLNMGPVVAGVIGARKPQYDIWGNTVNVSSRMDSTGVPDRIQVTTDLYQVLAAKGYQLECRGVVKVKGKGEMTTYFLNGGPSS
Put plainly: Adenylyl cyclase membrane assay, type VI (cAMP ELISA). Type of assay: biochemical, mouse. The note with it: cardiomyocyte membrane preparations from transgenic mice; forskolin 50 μM. The protocol: as §1, §2, §3
Hearts were surgically excised from transgenic mice. Each isolated heart was treated with 3-4 mL of buffer A and cooled to 0 deg C. for 5 minutes. Treated hearts were homogenized for 10 seconds using a Polytron homogenizer cooled to 0 deg C. and set to speed 6. Homogenized hearts were centrifuged at 500×g at 4 deg C. for 10 minutes. Supernatants were transferred to ultracentrifuge tubes and centrifuged at 35,000 rpm at 4 deg C. for 40 minutes. Isolated pellets were combined with buffer B (500 μL) and sonicated to a suspension. Protein concentration was determined using a commercial Bradford assay kit. Membrane preparations were stored at −80 deg C. […]
(§5) A reaction mixture was pre-incubated at 30 deg C. for 5 minutes. […] The cAMP concentration of the supernatant was measured using a Cyclic AMP Competitive ELISA kit purchased from ThermoFischer Scientific.

The target in a further assay is T3, type II adenylyl cyclase (Homo sapiens, UniProt Q08462).
T3 construct: from tissue; host or cells: heart (cardiomyocyte) membrane preparations from transgenic mice overproducing type II adenylyl cyclase
T3 sequence (Q08462 whole entry): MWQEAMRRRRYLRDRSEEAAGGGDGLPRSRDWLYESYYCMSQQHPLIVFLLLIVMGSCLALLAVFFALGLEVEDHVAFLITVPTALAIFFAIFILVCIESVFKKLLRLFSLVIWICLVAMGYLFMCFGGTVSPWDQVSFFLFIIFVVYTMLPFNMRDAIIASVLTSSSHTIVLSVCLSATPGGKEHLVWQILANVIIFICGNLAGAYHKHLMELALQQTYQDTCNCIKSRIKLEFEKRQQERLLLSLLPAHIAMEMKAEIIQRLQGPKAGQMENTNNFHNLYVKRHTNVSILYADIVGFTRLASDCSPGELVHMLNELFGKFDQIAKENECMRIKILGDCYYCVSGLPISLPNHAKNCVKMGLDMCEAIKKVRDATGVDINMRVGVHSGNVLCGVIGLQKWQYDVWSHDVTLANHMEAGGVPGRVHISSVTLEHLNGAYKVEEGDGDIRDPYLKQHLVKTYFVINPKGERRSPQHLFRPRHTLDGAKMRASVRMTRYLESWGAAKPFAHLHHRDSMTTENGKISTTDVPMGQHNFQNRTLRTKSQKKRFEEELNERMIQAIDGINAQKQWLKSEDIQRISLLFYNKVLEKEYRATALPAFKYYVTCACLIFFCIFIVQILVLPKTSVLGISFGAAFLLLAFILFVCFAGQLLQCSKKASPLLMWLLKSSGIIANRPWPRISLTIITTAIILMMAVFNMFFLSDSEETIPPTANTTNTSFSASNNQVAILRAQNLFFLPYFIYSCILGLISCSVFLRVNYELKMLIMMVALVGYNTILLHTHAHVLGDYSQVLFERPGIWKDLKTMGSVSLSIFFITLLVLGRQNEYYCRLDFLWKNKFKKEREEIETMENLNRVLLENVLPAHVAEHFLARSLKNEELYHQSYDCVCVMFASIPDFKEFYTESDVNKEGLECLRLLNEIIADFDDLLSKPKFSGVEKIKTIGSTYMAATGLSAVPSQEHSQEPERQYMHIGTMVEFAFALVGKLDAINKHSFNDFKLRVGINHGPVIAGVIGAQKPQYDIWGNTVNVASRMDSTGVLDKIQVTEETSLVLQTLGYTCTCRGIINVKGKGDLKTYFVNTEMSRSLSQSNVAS
Put plainly: Adenylyl cyclase membrane assay, type II (cAMP ELISA). It is filed as biochemical, mouse. The note with it: cardiomyocyte membrane preparations from transgenic mice; forskolin 50 μM. The protocol: as §1, §2, §3
Hearts were surgically excised from transgenic mice. Each isolated heart was treated with 3-4 mL of buffer A and cooled to 0 deg C. for 5 minutes. […] Protein concentration was determined using a commercial Bradford assay kit. […]
as §5
For orientation: An ELISA detects its analyte on a solid surface through an enzyme-linked reagent.

The subject of assay [2] is H9c2(2-1) myoblast cell line. Put plainly: Adenylyl cyclase cell-based assay, forskolin-stimulated cAMP. Conditions: Rattus norvegicus; H9c2 cells, forskolin 50 μM. How it is done: as §4
The test system of assay [3] is Mouse Ischemia and Reperfusion Model. Description: Mouse ischemia and reperfusion model, infarct size. The note with it: mice; 30 min CAO, 24 hr CAR; i.v. infusion 0.06 mg/kg delivered at CAR; vehicle 33%. Type of assay: in vivo. How it is done: 3-4-month-old male CS7BL/6 mice purchased from Jack-son Laboratory were anesthetized by an injection of 2% 2,2,2-tribromomethanol ([…] i.p.; Aldrich Chemical, St. Louis, Mo.). The mice were then orally intubated and mechanically ventilated. The heart was accessed via a thoracotomy at the fourth intercostals space and 7-0 silk suture passed under the left anterior descending coronary artery (LAD) at the point where it emerged from under the left atrial flap. Myocardial ischemia was achieved by occluding the LAD against a 22-gauge J-shaped stainless-steel probe and verified by visually noting the regional akinesis and blanching of the left ventricle. The chest was closed in layers, with the long end of the probe remaining outside the chest wall, allowing the animals to be removed from the ventilator. After 30 min. of ischemia, reperfusion was initiated by carefully pulling the probe out from the ligature and then removing it from the chest cavity. Following the surgical procedure, the mice were allowed to recover on a warmed surface, with supplemental oxygen delivered from a nose cone. I/R were verified by three lead electrocardiograms, which were obtained preoperatively, at the end of the ischemic interval and immediately after the initiation of reperfusion. Mice fully recovered from the surgical procedure were returned to standard animal housing conditions. […]

For `Nc1nc(F)nc2c1ncn2[C@@H]1CC[C@@H](C(=O)NO)C1` [Compound 10j, (1R,3R)-3-(6-amino-2-fluoro-9H-purin-9-yl)-N-hydroxycyclopentanecarboxamide], the pIC50 (commonly the IC50 on a negative log10 scale, so that one unit is a factor of ten) against type V adenylyl cyclase is 7.10; in assay [1], 5.61; at type VI adenylyl cyclase, 6.68; on type II adenylyl cyclase it was 5.25; in assay [2], 5.63. On type V adenylyl cyclase, `Nc1ncnc2c1ncn2[C@@H]1C[C@@H](CO)[C@@H](C(=O)NO)C1` [Compound 10i, (1S,2R,4R)-4-(6-amino-9H-purin-9-yl)-N-hydroxy-2-(hydroxymethyl)cyclopentanecarboxamide] gave a pIC50 of 5.51. At type V adenylyl cyclase, `Nc1nccc2c1ncn2[C@@H]1CC[C@@H](C(=O)O)C1` [Compound 10a, (1R,3R)-3-(4-amino-1H-imidazo[4,5-c]pyridin-1-yl)cyclopentanecarboxylic acid] had a pIC50 of under 5.00. Still for that read-out and setting: under `Nc1nc(C(F)(F)F)nc2c1ncn2[C@@H]1CC[C@@H](C(=O)NO)C1` [Compound 10l, (1R,3R)-3-(6-amino-2-(trifluoromethyl)-9H-purin-9-yl)-N-hydroxycyclopentanecarboxamide] stands 5.19; under `Nc1nccc2c1ccn2[C@@H]1CC[C@@H](C(=O)O)C1` [Compound 10e, (1R,3R)-3-(4-amino-1H-pyrrolo[3,2-c]pyridin-1-yl)cyclopentanecarboxylic acid], under 5.00; under `Nc1nc(N)c2ncn([C@@H]3CC[C@@H](C(=O)NO)C3)c2n1` [Compound 10m, (1R,3R)-3-(2,6-diamino-9H-purin-9-yl)-N-hydroxycyclopentanecarboxamide], 5.46. For the compound `Nc1ncnc2c1nc(O)n2[C@@H]1CC[C@@H](C(=O)NO)C1` [Compound 10r, (1R,3R)-3-(6-amino-8-hydroxy-9H-purin-9-yl)-N-hydroxycyclopentanecarboxamide], the pIC50 on type V adenylyl cyclase is under 3.52. For the compound `Nc1nccc2c1ncn2[C@@H]1CC[C@@H](C(=O)NO)C1` [Compound 10b, (1R,3R)-3-(4-amino-1H-imidazo[4,5-c]pyridin-1-yl)-N-hydroxycyclopentanecarboxamide], the pIC50 against type V adenylyl cyclase was 6.54; in assay [2], 5.07. On to `Nc1ncnc2c1ncn2[C@@H]1C[C@H](CO)[C@@H](C(=O)O)C1` [Compound 10g, (1S,2S,4R)-4-(6-amino-9H-purin-9-yl)-2-(hydroxymethyl)cyclopentanecarboxylic acid], for which, on type V adenylyl cyclase, the pIC50 is under 4.00. Turning to `Cc1nc2c(N)ncnc2n1[C@@H]1CC[C@@H](C(=O)NO)C1` [Compound 10o, (1R,3R)-3-(6-amino-8-methyl-9H-purin-9-yl)-N-hydroxycyclopentanecarboxamide], at type V adenylyl cyclase, the negative logarithm of the IC50 (pIC50) was under 3.52. `C[C@H]1C[C@@H](n2cnc3c(N)nc(F)nc32)C[C@@H]1C(=O)NO` [Compound 10t] gave a pIC50 against type V adenylyl cyclase of 6.89. The same measure, in the same setting: under `Nc1ncnc2c1ccn2[C@@H]1CC[C@@H](C(=O)O)C1` [Compound 10c, (1R,3R)-3-(4-amino-7H-pyrrolo[2,3-d]pyrimidin-7-yl)cyclopentanecarboxylic acid] stands under 4.00. As for `Nc1ncnc2c1ncn2[C@@H]1O[C@H](CO)[C@@H](O)[C@H]1O` [adenosine, Adenosine, reference compound], the “left ventricle (LV) infarct size” value in assay [3] is 38%. For `Nc1ncnc2c1nc(C(F)(F)F)n2[C@@H]1CC[C@@H](C(=O)NO)C1` [Compound 10p, (1R,3R)-3-(6-amino-8-(trifluoromethyl)-9H-purin-9-yl)-N-hydroxycyclopentanecarboxamide], the pIC50 against type V adenylyl cyclase was under 3.52. On the same count and under the same terms, under `Nc1nc(O)nc2c1ncn2[C@@H]1CC[C@@H](C(=O)NO)C1` [Compound 10n, (1R,3R)-3-(6-amino-2-hydroxy-9H-purin-9-yl)-N-hydroxycyclopentanecarboxamide] stands under 3.52; under `Cc1nc(N)c2ncn([C@@H]3CC[C@@H](C(=O)NO)C3)c2n1` [Compound 10k, (1R,3R)-3-(6-amino-2-methyl-9H-purin-9-yl)-N-hydroxycyclopentanecarboxamide], 5.31. Still for that read-out and setting: the figure for `Nc1ncnc2c1ccn2[C@@H]1CC[C@@H](C(=O)NO)C1` [Compound 10d, (1R,3R)-3-(4-amino-7H-pyrrolo[2,3-d]pyrimidin-7-yl)-N-hydroxycyclopentanecarboxamide] is 6.01. In the case of `Nc1ncnc2c1ncn2[C@@H]1CC[C@@H](C(=O)NO)C1` [Compound 10, (1R,3R)-3-(6-amino-9H-purin-9-yl)-N-hydroxycyclopentanecarboxamide], the negative-log IC50 (pIC50) at type V adenylyl cyclase was 6.82; in assay [1], 4.57; against type VI adenylyl cyclase it was 6.60; in assay [2], 5.02. Besides, in assay [3], the “left ventricle (LV) infarct size” value was 20%. On type V adenylyl cyclase, `C[C@H]1C[C@@H](n2cnc3c(N)ncnc32)C[C@@H]1C(=O)NO` [Compound 10s, (1S,2S,4R)-4-(6-amino-9H-purin-9-yl)-N-hydroxy-2-methylcyclopentanecarboxamide] had a pIC50 of 6.29.

Turning to `Nc1ncnc2c1ncn2[C@@H]1C[C@H](CO)[C@@H](C(=O)NO)C1` [Compound 10h, (1S,2S,4R)-4-(6-amino-9H-purin-9-yl)-N-hydroxy-2-(hydroxymethyl)cyclopentanecarboxamide], the pIC50 was 5.72 against type V adenylyl cyclase and 4.74 in assay [2].

Turning to `Nc1ncnc2c1nc(N)n2[C@@H]1CC[C@@H](C(=O)NO)C1` [Compound 10q, (1R,3R)-3-(6,8-diamino-9H-purin-9-yl)-N-hydroxycyclopentanecarboxamide], on type V adenylyl cyclase, the pIC50 was under 3.52.
